Assay results published in patent US8637493B2, “Methods for treating glioblastoma” (University of Massachusetts, priority 2009, dated 2014).

Tests used:
U87NS-pMIG = experiment: Neurosphere recovery assay, empty vector U87NS-pMIG; type: cell-based, human; conditions: empty vector control
Description: (§1) Neurosphere cultures were dissociated to single cell suspensions by pH dissociation followed by filtration through 40 μm screens. For the neurosphere assay, 3,000 cells/ml of defined medium were seeded in 6-well plates. Immediately after plating, cells were treated with DMSO (Research Organics, Cleveland, Ohio) carrier control, TMZ-only, DAPT-only, or TMZ+DAPT. Additional DAPT was added on days 2 and 4. Neurospheres consisting of 10 or more cells were counted under a light microscope on day 7 for the converted cell lines. Primary lines have a slightly longer doubling time and were counted on day 10. After counting the neurospheres from the initial treatment, 2 ml of fresh defined medium was added to each well. DAPT was also added once more to the DAPT-only and TMZ+DAPT samples, and the cells were incubated for an additional 7 or 10 days. Neurospheres from the recovery period were counted on day 14 or day 20. To analyze secondary neurosphere formation, cells were collected, pelleted and dissociated to a single cell suspension by the pH method. Cells from each well were re-seeded into 6-well plates with 2 ml of defined medium. The number of secondary neurospheres formed by converted cell lines and primary cultures were counted on day 21 or day 30, respectively. All recovery assays were repeated with a minimum of 6 replicate sets of time points. […]

U87NS-NICD = experiment: Neurosphere recovery assay, U87NS-NICD (constitutive Notch1 intracellular domain); type: cell-based, human
Description: as §1

GS7-2-NICD = experiment: Neurosphere recovery assay, GS7-2-NICD; type: cell-based, human; conditions: constitutive NICD
Description: as §1

U87NS xenografts = experiment: In vivo treatment of pre-existing subcutaneous U87NS xenografts; set-up: species or system nude mice
Description: We tested the effect of in vivo TMZ+GSI treatments on pre-existing subcutaneous glioma xenografts. […] When the tumor reached approximately 150 mm^3 (volume=([…])(π)(length/2)(width/2)^2), we began the following treatments: 1) DMSO control: two days of 100 μl DMSO/PBS (1:1) intraperitoneal (i.p.) injections; 2) TMZ-only: injections of TMZ (20 mg/kg) in 100 μl DMSO/PBS on days one and two; 3) LY chow-only: two days of 100 μl DMSO/PBS i.p. injections. […] The mice were fed LY chow from day 3 to 12.

Hes1 = experiment: RT-PCR / qRT-PCR of Notch target Hes1 mRNA in neurosphere cultures after DAPT; type: cell-based, human; conditions: for decrease of Hes1 mRNA level: 48 hours after treatment, RT-PCR; for Hes1 expression (qRT-PCR): 1 μM DAPT, 48 hours
Description: TMZ concentrations for each culture were selected based on previous experiments (Mihaliak et al., Cancer Letts. 296, 168-177 (2010)) DAPT and LY concentrations were chosen for each culture based on the decrease in Hes1 and Hey1 expression. RNA was isolated from the cultures 48 hours after DAPT treatment, and Hes1 and Hey1 cDNA expression levels were analyzed by PCR or qPCR.
RT-PCR and RT-qPCR were performed as follows. Neurosphere cultures were pelleted and tumor tissues from subcutaneous xenografts were broken into a powder using a BioPulverizer (Biospec Products, Inc., Bartlesville, Okla.). RNA was isolated from neurosphere cultures and frozen tumor samples using TRIzol Reagent (Invitrogen, Carlsbad, Calif.), following the manufacturer's protocol. RNA was treated with DNase I, Amplification Grade (Invitrogen, Carlsbad, Calif.). cDNA was made using the SuperScript II Reverse Transcription (RT) Kit with Oligo(dT)12-18 primers (Invitrogen, Carlsbad, Calif.), followed by a 20 minute incubation at 37° C. with RNaseH. PCR was carried out using Taq DNA Polymerase, following the manufacturer's protocol (Invitrogen, Carlsbad, Calif.). Real time qPCR was carried out using QuantiTect SYBR Green (QIAGEN, Valencia, Calif.). Hes1 and β-Actin primers were developed using Primer3 (Rozen and Skaletsky, Methods Mol Biol 2000; 132: 365-86). Hes1 forward primer: 5″ […] 3″ (SEQ ID NO:1) and reverse primer: 5″ […] 3″ (SEQ ID NO:2). β-Actin (RT-PCR) forward primer: 5″[…] 3″ (SEQ ID NO:3) and reverse primer: 5″ […] 3″ (SEQ ID NO:4). β-Actin (qRT-PCR) forward primer: 5″[…] 3″ (SEQ ID NO:5) and reverse primer: 5″ […] (SEQ ID NO:6). Primers for Hey1 (Osipo et al., Oncogene 2008; 27: 5019-32), Notch1 (Lefort et al., Genes Dev 2007; 21: 562-77), Notch2 (O'Neill et al., Am J Pathol 2007; 171: 1023-36), Notch3 (Buchler et al., Ann Surg 2005; 242: 791-800, discussion −1) and Notch4 (Buchler et al., Ann Surg 2005; 242: 791-800, discussion −1) were previously published, RT-PCR products were analyzed on 2% agarose gels. tantification of band intensity for DAPT treated lines was determined using ImageJ (Rasband W S. ImageJ, U.S. National Institutes of Health, Bethesda, Md., USA. 1997-2004). cDNA levels for qRT-PCR products were calculated using the PFAFFL method (Pfaffl, Nucleic Acids Res 2001; 29: e45).

| SMILES | recovery: increase in neurospheres (U87NS-pMIG) [fold] | recovery: increase in neurospheres (U87NS-NICD) [fold] | recovery: increase in neurospheres (GS7-2-NICD) [fold] | mice / xenografts with tumor progression (tumor volume doubled) (U87NS xenografts; TMZ 20 mg/kg i.p. days 1-2, LY chow day 3 to 12) | average time until tumor volume doubled (progression) (U87NS xenografts; after treatment, progressing mice only) [days] | mice that succumbed to progression (U87NS xenografts; in vivo TMZ treatment) [%] | decrease of Hes1 mRNA level (Hes1; U87NS, DAPT 1 μM) [%] | Hes1 expression (qRT-PCR) (Hes1; U87NS-NICD) | Hes1 expression (qRT-PCR) (Hes1; U87NS-pMIG) | decrease of Hes1 mRNA level (Hes1; U373NS, DAPT 5 μM) [%] |
| --- | --- | --- | --- | --- | --- | --- | --- | --- | --- | --- |
| Cn1nnc2c(C(N)=O)ncn2c1=O [TMZ, temozolomide] | 1.9 | 2.3 | 2.6 | 8/8 | 23 ± 7 | 100 | – | – | – | – |
| C[C@H](NC(=O)Cc1cc(F)cc(F)c1)C(=O)N[C@H](C(=O)OC(C)(C)C)c1ccccc1 [DAPT, N-[N-(3,5-difluorophenacetyl)-L-alanyl]-(S)-phenylglycine t-butyl ester] | – | – | – | – | – | – | 72 | minimal decrease | decreased | 76 |
